# Results taken from PubChem BioAssay (NCI).
#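 Results reflect a 48-hour exposure of cells in 96-well plates to compound at five concentrations. GI50 is the concentration that inhibits growth by half. TGI marks complete inhibition of growth.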
# How the values were obtained:
# Experiment in all cases: NCI anticancer screen, dose series, 48 h
# 786-0 renal = system: 786-0 renal
# RPMI-8226 leukemia = system: RPMI-8226 leukemia
# SF-268 CNS = system: SF-268 CNS
# SF-295 CNS = system: SF-295 CNS
# SF-539 CNS = system: SF-539 CNS
# SK-MEL-5 melanoma = system: SK-MEL-5 melanoma
# U251 CNS = system: U251 CNS
# UACC-257 melanoma = system: UACC-257 melanoma
# MCF7 breast = system: MCF7 breast
# MDA-MB-231 breast = system: MDA-MB-231 breast
smiles,measurement,setting,value
O=C(CC1Sc2ccccc2NC1=O)Nc1cc(Cl)ccc1Cl (stereo not drawn),TGI,786-0 renal,> 100 µM
same,TGI,RPMI-8226 leukemia,> 100 µM
same,TGI,SF-268 CNS,> 100 µM
same,TGI,SF-295 CNS,> 100 µM
same,TGI,SF-539 CNS,> 100 µM
same,TGI,SK-MEL-5 melanoma,> 100 µM
same,TGI,U251 CNS,> 100 µM
same,TGI,UACC-257 melanoma,> 100 µM
CC1(Sc2ccccc2)CN(Cc2ccccc2)C1=O (stereo not drawn),TGI,786-0 renal,> 100 µM
same,TGI,RPMI-8226 leukemia,> 100 µM
same,TGI,SF-268 CNS,> 100 µM
same,TGI,SF-295 CNS,> 100 µM
same,TGI,SF-539 CNS,> 100 µM
same,TGI,SK-MEL-5 melanoma,> 100 µM
same,TGI,U251 CNS,> 100 µM
same,TGI,UACC-257 melanoma,> 100 µM
COC(=O)CCC(=O)N1Cc2cc(C)ccc2N(C(=O)CCC(=O)OC)Cc2cc(C)ccc21,TGI,786-0 renal,> 100 µM
same,TGI,RPMI-8226 leukemia,> 100 µM
same,TGI,SF-268 CNS,> 100 µM
same,TGI,SF-295 CNS,> 100 µM
same,TGI,SF-539 CNS,> 100 µM
same,TGI,SK-MEL-5 melanoma,> 100 µM
same,TGI,U251 CNS,> 100 µM
Cc1ccc2c(c1)C1(C)OC(CC(N)C1O)O2 (stereo not drawn),TGI,786-0 renal,> 100 µM
same,TGI,RPMI-8226 leukemia,> 100 µM
same,TGI,SF-295 CNS,> 100 µM
same,TGI,SF-539 CNS,> 100 µM
same,TGI,SK-MEL-5 melanoma,> 100 µM
same,TGI,U251 CNS,> 100 µM
same,TGI,UACC-257 melanoma,> 100 µM
CN(C)c1ccc2c(NCCCCCCNc3ccnc4cc(N(C)C)ccc34)ccnc2c1,TGI,786-0 renal,45.3 µM
same,TGI,SF-268 CNS,> 100 µM
same,TGI,SF-295 CNS,40.3 µM
same,TGI,SF-539 CNS,45.2 µM
same,TGI,SK-MEL-5 melanoma,> 100 µM
same,TGI,U251 CNS,24.3 µM
same,TGI,UACC-257 melanoma,49.9 µM
Nc1cc(=O)[nH]c(SC2=NC(N)CC(O)C2)n1 (stereo not drawn),TGI,786-0 renal,> 100 µM
same,TGI,RPMI-8226 leukemia,> 100 µM
same,TGI,SF-295 CNS,> 100 µM
same,TGI,SF-539 CNS,> 100 µM
same,TGI,SK-MEL-5 melanoma,> 100 µM
same,TGI,U251 CNS,> 100 µM
same,TGI,UACC-257 melanoma,> 100 µM
CCOP(=O)(OCC)C1CCCCOC1=O (stereo not drawn),TGI,786-0 renal,> 100 µM
same,TGI,RPMI-8226 leukemia,> 100 µM
same,TGI,SF-268 CNS,> 100 µM
same,TGI,SF-295 CNS,> 100 µM
same,TGI,SF-539 CNS,> 100 µM
same,TGI,SK-MEL-5 melanoma,> 100 µM
same,TGI,U251 CNS,> 100 µM
same,TGI,UACC-257 melanoma,> 100 µM
CC(=O)[O][Pb]([O]C(C)=O)([c]1ccccc1)[c]1ccccc1,GI50,786-0 renal,3.53 µM
same,TGI,786-0 renal,> 100 µM
same,GI50,RPMI-8226 leukemia,4.12 µM
same,TGI,RPMI-8226 leukemia,> 100 µM
same,GI50,SF-268 CNS,3.29 µM
same,TGI,SF-268 CNS,16.6 µM
same,GI50,SF-295 CNS,46.6 µM
same,TGI,SF-295 CNS,> 100 µM
same,GI50,SF-539 CNS,13.3 µM
same,TGI,SF-539 CNS,> 100 µM
same,GI50,SK-MEL-5 melanoma,2.91 µM
same,TGI,SK-MEL-5 melanoma,14 µM
same,GI50,U251 CNS,4.69 µM
same,TGI,U251 CNS,10 µM
same,GI50,UACC-257 melanoma,6.88 µM
same,TGI,UACC-257 melanoma,> 100 µM
CC(=O)OC1c2ccccc2CC2(OC(C)=O)c3ccccc3C12 (stereo not drawn),TGI,786-0 renal,> 100 µM
same,TGI,MCF7 breast,> 100 µM
same,TGI,MDA-MB-231 breast,> 100 µM
same,TGI,RPMI-8226 leukemia,> 100 µM
same,TGI,SF-268 CNS,> 100 µM
same,TGI,SF-295 CNS,> 100 µM
same,TGI,SF-539 CNS,> 100 µM
same,TGI,U251 CNS,> 100 µM
same,TGI,UACC-257 melanoma,> 100 µM
C=C1C(=O)O[C@H]2C[C@@H](C)[C@@H]3CC(=O)OC[C@@]3(C)CC12 (stereo partly drawn),TGI,786-0 renal,> 100 µM
same,TGI,RPMI-8226 leukemia,75.2 µM
same,TGI,SF-268 CNS,> 100 µM
same,TGI,SF-295 CNS,76.2 µM
same,TGI,SF-539 CNS,48 µM
same,TGI,SK-MEL-5 melanoma,> 100 µM
same,TGI,U251 CNS,> 100 µM
CN(C)CCCNC(=O)c1cc(NC(=O)CCNS(=O)(=O)c2ccc3c(c2)C(=O)c2ccccc2C3=O)cn1C,GI50,786-0 renal,> 100 µM
same,TGI,786-0 renal,> 100 µM
same,GI50,MCF7 breast,> 100 µM
same,TGI,MCF7 breast,> 100 µM
same,GI50,MDA-MB-231 breast,> 100 µM
same,TGI,MDA-MB-231 breast,> 100 µM
same,GI50,RPMI-8226 leukemia,> 100 µM
same,TGI,RPMI-8226 leukemia,> 100 µM
same,GI50,SF-268 CNS,> 100 µM
same,TGI,SF-268 CNS,> 100 µM
same,GI50,SF-295 CNS,> 100 µM
same,TGI,SF-295 CNS,> 100 µM
same,GI50,SF-539 CNS,> 100 µM
same,TGI,SF-539 CNS,> 100 µM
same,GI50,SK-MEL-5 melanoma,> 100 µM
same,TGI,SK-MEL-5 melanoma,> 100 µM
same,GI50,UACC-257 melanoma,54.4 µM
same,TGI,UACC-257 melanoma,> 100 µM
CC1CC2C(=O)NC(=O)C2c2[nH]c3ccccc3c21 (stereo not drawn),TGI,786-0 renal,> 100 µM
same,TGI,RPMI-8226 leukemia,> 100 µM
same,TGI,SF-268 CNS,> 100 µM
same,TGI,SF-295 CNS,> 100 µM
same,TGI,SF-539 CNS,> 100 µM
same,TGI,SK-MEL-5 melanoma,> 100 µM
same,TGI,U251 CNS,> 100 µM
COc1ccccc1[N-]C(C1=C([O-])c2ccccc2C1=O)c1ccccc1.COc1ccccc1[N-]C(C1=C([O-])c2ccccc2C1=O)c1ccccc1.[Cu+2] (stereo not drawn),GI50,786-0 renal,7.76 µM
same,TGI,786-0 renal,> 100 µM
same,GI50,RPMI-8226 leukemia,3.9 µM
same,TGI,RPMI-8226 leukemia,> 100 µM
same,GI50,SF-268 CNS,5.3 µM
same,TGI,SF-268 CNS,> 100 µM
same,GI50,SF-295 CNS,5.33 µM
same,TGI,SF-295 CNS,> 100 µM
same,GI50,SF-539 CNS,3.82 µM
same,TGI,SF-539 CNS,15.1 µM
same,GI50,SK-MEL-5 melanoma,5.39 µM
same,TGI,SK-MEL-5 melanoma,72.7 µM
same,GI50,U251 CNS,2.88 µM
same,TGI,U251 CNS,8.33 µM
same,GI50,UACC-257 melanoma,12.9 µM
same,TGI,UACC-257 melanoma,> 100 µM
N#CC(C#N)=Cc1ccc(-c2ccc(-c3nc4ccccc4s3)cc2)o1,GI50,786-0 renal,3.15 µM
same,TGI,786-0 renal,16 µM
same,GI50,MCF7 breast,6.2 µM
same,TGI,MCF7 breast,> 100 µM
same,GI50,MDA-MB-231 breast,19.8 µM
same,TGI,MDA-MB-231 breast,37.8 µM
same,GI50,SF-268 CNS,27.6 µM
same,TGI,SF-268 CNS,> 100 µM
same,GI50,SF-295 CNS,20.7 µM
same,TGI,SF-295 CNS,46 µM
same,GI50,SF-539 CNS,11.2 µM
same,TGI,SF-539 CNS,26.7 µM
same,GI50,SK-MEL-5 melanoma,6.01 µM
same,TGI,SK-MEL-5 melanoma,76.2 µM
same,GI50,U251 CNS,12 µM
same,TGI,U251 CNS,24.8 µM
same,GI50,UACC-257 melanoma,92.9 µM
same,TGI,UACC-257 melanoma,> 100 µM
COc1ccc(Cn2nc(-c3cc(OC)c(OC)c(OC)c3)c3c2CCc2cnoc2-3)cc1OC,GI50,786-0 renal,6.34 µM
same,TGI,786-0 renal,> 100 µM
same,GI50,MCF7 breast,3.45 µM
same,TGI,MCF7 breast,18.3 µM
same,GI50,MDA-MB-231 breast,8 µM
same,TGI,MDA-MB-231 breast,> 100 µM
same,GI50,RPMI-8226 leukemia,2.69 µM
same,TGI,RPMI-8226 leukemia,23 µM
same,GI50,SF-268 CNS,5.41 µM
same,TGI,SF-268 CNS,> 100 µM
same,GI50,SF-539 CNS,3.11 µM
same,TGI,SF-539 CNS,36.1 µM
same,GI50,SK-MEL-5 melanoma,2.78 µM
same,TGI,SK-MEL-5 melanoma,12 µM
same,GI50,U251 CNS,4.97 µM
same,TGI,U251 CNS,> 100 µM
same,GI50,UACC-257 melanoma,34.6 µM
same,TGI,UACC-257 melanoma,> 100 µM
CN1CCc2c1nc(-c1ccccc1)c1c2N(C)CC1,TGI,786-0 renal,> 100 µM
same,TGI,RPMI-8226 leukemia,> 100 µM
same,TGI,SF-268 CNS,> 100 µM
same,TGI,SF-295 CNS,> 100 µM
same,TGI,SF-539 CNS,> 100 µM
same,TGI,SK-MEL-5 melanoma,> 100 µM
same,TGI,U251 CNS,> 100 µM
same,TGI,UACC-257 melanoma,> 100 µM
COc1cc2c(cc1OC)-c1ccc3cc4c(cc3c1N(CCN1CCCC1)C2)OCO4,GI50,786-0 renal,0.477 µM
same,TGI,786-0 renal,1.92 µM
same,GI50,MDA-MB-231 breast,1.27 µM
same,TGI,MDA-MB-231 breast,3.3 µM
same,GI50,RPMI-8226 leukemia,0.224 µM
same,TGI,RPMI-8226 leukemia,0.723 µM
same,GI50,SF-268 CNS,0.36 µM
same,TGI,SF-268 CNS,2 µM
same,GI50,SF-295 CNS,0.441 µM
same,TGI,SF-295 CNS,3.1 µM
same,GI50,SF-539 CNS,0.643 µM
same,TGI,SF-539 CNS,2.75 µM
same,GI50,SK-MEL-5 melanoma,1.48 µM
same,TGI,SK-MEL-5 melanoma,3.09 µM
same,GI50,U251 CNS,0.563 µM
same,TGI,U251 CNS,1.9 µM
same,GI50,UACC-257 melanoma,9.81 µM
same,TGI,UACC-257 melanoma,22.2 µM
CCCC(O)[C@@H](O)c1ccc2c(c1O)C(=O)c1c(OC)cccc1C2=O (stereo partly drawn),TGI,786-0 renal,> 100 µM
same,TGI,RPMI-8226 leukemia,38.2 µM
same,TGI,SF-268 CNS,> 100 µM
same,TGI,SF-295 CNS,> 100 µM
same,TGI,SF-539 CNS,58.8 µM
same,TGI,SK-MEL-5 melanoma,31.2 µM
same,TGI,U251 CNS,> 100 µM
same,TGI,UACC-257 melanoma,68.8 µM
CC1(C)CCC2(C(=O)OC3OC(CO)C(O)C(O)C3O)CC[C@]3(C)C(=CCC4C5(C)CC[C@H](OC6OC(C(=O)O)C(O)C(O)C6O)C(C)(C)C5CCC43C)C2C1 (stereo partly drawn),GI50,786-0 renal,1.56 µM
same,TGI,786-0 renal,6.19 µM
same,GI50,MCF7 breast,1.6 µM
same,TGI,MCF7 breast,> 50 µM
same,GI50,MDA-MB-231 breast,1.15 µM
same,TGI,MDA-MB-231 breast,2.76 µM
same,GI50,RPMI-8226 leukemia,0.776 µM
same,TGI,RPMI-8226 leukemia,10.2 µM
same,GI50,SF-268 CNS,2.17 µM
same,TGI,SF-268 CNS,11.4 µM
same,GI50,SF-295 CNS,2.56 µM
same,TGI,SF-295 CNS,> 50 µM
same,GI50,SK-MEL-5 melanoma,0.929 µM
same,TGI,SK-MEL-5 melanoma,1.78 µM
same,GI50,U251 CNS,1.06 µM
same,TGI,U251 CNS,2.61 µM
same,GI50,UACC-257 melanoma,4.18 µM
same,TGI,UACC-257 melanoma,15.4 µM
